{"source": "ChEMBL document CHEMBL4825677", "about": "“Design, synthesis and biological evaluation of novel benzofuran derivatives as potent LSD1 inhibitors” (Eur J Med Chem, 2021)", "key": {"[1]": {"molecular_target": "T1, Amine oxidase [flavin-containing] A (Homo sapiens, UniProt P21397)", "T1 sequence (P21397 whole entry)": "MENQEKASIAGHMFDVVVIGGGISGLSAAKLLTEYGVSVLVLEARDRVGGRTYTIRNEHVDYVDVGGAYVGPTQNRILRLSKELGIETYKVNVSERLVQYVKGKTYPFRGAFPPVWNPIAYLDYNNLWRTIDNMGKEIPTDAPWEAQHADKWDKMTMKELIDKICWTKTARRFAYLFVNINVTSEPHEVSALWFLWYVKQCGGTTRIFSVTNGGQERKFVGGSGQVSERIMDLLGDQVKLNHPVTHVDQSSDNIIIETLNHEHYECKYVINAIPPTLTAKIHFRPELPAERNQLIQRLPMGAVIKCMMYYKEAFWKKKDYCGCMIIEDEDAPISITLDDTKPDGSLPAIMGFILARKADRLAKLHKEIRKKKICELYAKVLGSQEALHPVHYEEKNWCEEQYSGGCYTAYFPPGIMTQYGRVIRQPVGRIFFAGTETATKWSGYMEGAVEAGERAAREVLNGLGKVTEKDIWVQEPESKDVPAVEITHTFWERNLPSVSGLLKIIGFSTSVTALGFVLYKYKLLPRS", "experiment": "Inhibition of N-terminal FLAG-tagged human recombinant MAO-A expressed in baculovirus-infected Sf9 cells by […]"}, "[2]": {"molecular_target": "T2, Amine oxidase [flavin-containing] B (Homo sapiens, UniProt P27338)", "T2 sequence (P27338 whole entry)": "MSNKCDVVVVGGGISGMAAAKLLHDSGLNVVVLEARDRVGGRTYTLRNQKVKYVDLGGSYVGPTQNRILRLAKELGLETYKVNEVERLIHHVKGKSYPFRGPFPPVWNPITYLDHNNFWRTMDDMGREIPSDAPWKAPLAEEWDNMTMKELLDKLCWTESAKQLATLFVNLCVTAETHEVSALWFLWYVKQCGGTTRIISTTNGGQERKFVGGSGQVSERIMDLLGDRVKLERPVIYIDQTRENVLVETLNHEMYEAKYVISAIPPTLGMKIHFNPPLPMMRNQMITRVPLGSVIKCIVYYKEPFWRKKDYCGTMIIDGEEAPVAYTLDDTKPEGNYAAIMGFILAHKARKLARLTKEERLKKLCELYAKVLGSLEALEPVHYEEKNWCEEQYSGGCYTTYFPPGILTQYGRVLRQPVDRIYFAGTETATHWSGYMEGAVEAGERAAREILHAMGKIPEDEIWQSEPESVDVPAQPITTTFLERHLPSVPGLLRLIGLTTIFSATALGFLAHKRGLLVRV", "experiment": "Inhibition of N-terminal FLAG-tagged human recombinant MAO-B expressed in baculovirus-infected Sf9 cells by […]"}, "[3]": {"experiment": "Microsomal stability in human liver microsomes assessed as parent compound remaining after 60 mins in presence of NADPH regenerating system by LC-MS/MS analysis", "type": "ADME, Microsome", "settings": "read-out: Stabilty; call rule not given here"}, "[4]": {"experiment": "Microsomal stability in human liver microsomes assessed as parent compound remaining after 60 mins in absence of NADPH regenerating system by LC-MS/MS analysis", "type": "ADME, Microsome", "settings": "read-out: Stabilty"}, "Cytochrome P450 2C9": {"molecular_target": "Cytochrome P450 2C9 (Homo sapiens, UniProt P11712)", "sequence (P11712 whole entry)": "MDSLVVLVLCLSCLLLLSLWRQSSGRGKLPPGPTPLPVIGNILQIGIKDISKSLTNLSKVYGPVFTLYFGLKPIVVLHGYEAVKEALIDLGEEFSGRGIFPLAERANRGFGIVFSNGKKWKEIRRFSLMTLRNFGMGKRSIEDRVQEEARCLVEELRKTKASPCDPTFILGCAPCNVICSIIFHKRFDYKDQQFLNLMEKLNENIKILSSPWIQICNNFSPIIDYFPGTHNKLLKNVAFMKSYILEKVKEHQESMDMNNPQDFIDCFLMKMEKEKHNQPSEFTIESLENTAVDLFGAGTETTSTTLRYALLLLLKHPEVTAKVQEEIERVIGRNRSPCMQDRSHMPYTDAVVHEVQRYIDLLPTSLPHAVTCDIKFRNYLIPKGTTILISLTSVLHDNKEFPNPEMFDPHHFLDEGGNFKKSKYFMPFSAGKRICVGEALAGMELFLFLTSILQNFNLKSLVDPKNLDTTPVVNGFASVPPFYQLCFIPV", "experiment": "Inhibition of CYP2C9 in human liver microsomes at 10 uM by LC-MS/MS analysis", "type": "ADME"}, "Cytochrome P450 2C19": {"molecular_target": "Cytochrome P450 2C19 (Homo sapiens, UniProt P33261)", "sequence (P33261 whole entry)": "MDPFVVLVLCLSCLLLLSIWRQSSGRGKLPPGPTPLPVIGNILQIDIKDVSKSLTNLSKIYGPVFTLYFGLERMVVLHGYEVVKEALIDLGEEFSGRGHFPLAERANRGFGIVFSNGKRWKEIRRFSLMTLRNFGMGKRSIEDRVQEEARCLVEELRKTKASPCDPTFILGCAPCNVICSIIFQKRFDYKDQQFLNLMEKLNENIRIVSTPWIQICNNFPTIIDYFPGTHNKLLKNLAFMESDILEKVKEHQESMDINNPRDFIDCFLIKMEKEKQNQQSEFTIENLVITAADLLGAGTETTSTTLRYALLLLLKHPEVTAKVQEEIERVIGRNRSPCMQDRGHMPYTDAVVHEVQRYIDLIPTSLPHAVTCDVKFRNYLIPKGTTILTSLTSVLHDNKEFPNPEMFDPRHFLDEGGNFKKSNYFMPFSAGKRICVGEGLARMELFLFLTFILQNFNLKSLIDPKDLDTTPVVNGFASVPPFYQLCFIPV", "experiment": "Inhibition of CYP2C19 in human liver microsomes at 10 uM by LC-MS/MS analysis", "type": "ADME"}, "Cytochrome P450 2D6": {"molecular_target": "Cytochrome P450 2D6 (Homo sapiens, UniProt P10635)", "sequence (P10635 whole entry)": "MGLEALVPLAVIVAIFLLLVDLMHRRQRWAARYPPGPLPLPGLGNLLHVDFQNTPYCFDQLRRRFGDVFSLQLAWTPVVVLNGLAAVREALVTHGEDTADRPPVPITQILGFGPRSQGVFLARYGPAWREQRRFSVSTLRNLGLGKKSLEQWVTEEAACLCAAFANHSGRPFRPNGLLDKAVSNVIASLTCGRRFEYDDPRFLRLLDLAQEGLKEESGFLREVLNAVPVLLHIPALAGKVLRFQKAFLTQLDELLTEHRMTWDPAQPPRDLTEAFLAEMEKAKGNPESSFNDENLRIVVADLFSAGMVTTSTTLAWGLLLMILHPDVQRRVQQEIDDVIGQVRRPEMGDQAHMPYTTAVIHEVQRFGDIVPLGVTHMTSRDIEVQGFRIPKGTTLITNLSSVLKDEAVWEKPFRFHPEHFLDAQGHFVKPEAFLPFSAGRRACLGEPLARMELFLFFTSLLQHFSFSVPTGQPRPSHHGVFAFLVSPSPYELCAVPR", "experiment": "Inhibition of CYP2D6 in human liver microsomes at 10 uM by LC-MS/MS analysis", "type": "ADME"}, "Cytochrome P450 3A4": {"molecular_target": "Cytochrome P450 3A4 (Homo sapiens, UniProt P08684)", "sequence (P08684 whole entry)": "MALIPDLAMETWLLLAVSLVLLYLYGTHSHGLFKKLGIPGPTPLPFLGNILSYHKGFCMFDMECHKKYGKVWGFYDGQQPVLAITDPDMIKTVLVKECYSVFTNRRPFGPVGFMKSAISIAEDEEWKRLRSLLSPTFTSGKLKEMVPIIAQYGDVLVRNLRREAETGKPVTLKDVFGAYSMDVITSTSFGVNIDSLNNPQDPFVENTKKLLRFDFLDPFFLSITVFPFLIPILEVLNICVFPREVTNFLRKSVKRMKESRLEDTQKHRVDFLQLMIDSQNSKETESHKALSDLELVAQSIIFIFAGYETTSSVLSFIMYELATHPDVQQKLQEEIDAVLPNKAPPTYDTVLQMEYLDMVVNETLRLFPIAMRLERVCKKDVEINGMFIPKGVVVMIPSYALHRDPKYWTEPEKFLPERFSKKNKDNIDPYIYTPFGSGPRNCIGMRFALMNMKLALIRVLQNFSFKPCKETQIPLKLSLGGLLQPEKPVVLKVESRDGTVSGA", "experiment": "Inhibition of CYP3A4 in human liver microsomes at 10 uM by LC-MS/MS analysis", "type": "ADME"}, "Cytochrome P450 1A2": {"molecular_target": "T3, Cytochrome P450 1A2 (Homo sapiens, UniProt P05177)", "T3 sequence (P05177 whole entry)": "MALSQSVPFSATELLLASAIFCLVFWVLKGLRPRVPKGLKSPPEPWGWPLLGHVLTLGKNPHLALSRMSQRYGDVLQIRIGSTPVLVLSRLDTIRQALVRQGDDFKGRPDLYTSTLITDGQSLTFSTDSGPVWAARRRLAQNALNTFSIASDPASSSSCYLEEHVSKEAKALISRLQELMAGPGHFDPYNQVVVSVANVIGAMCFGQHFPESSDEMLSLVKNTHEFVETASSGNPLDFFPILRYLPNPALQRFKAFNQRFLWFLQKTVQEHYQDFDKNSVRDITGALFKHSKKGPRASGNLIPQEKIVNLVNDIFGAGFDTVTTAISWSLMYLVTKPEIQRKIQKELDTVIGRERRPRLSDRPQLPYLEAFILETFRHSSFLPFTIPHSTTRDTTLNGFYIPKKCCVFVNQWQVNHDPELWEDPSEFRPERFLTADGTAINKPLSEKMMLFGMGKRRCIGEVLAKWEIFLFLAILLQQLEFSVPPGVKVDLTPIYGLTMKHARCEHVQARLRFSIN", "experiment": "Inhibition of CYP1A2 in human liver microsomes at 10 uM by LC-MS/MS analysis", "type": "ADME"}, "NCI-H460 [5]": {"tested_on": "NCI-H460", "experiment": "Induction of apoptosis in human NCI-H460 cells assessed as early apoptotic cells at 1 uM incubated for 48 hrs by AnnexinV-FITC/propidium iodide staining based flow cytometric analysis (reference value: 2.22%)", "type": "functional"}, "NCI-H460 [6]": {"tested_on": "NCI-H460", "experiment": "Induction of apoptosis in human NCI-H460 cells assessed as late apoptotic cells at 1 uM incubated for 48 hrs by AnnexinV-FITC/propidium iodide staining based flow cytometric analysis (reference value: 1.36%)", "type": "functional"}, "NCI-H460 [7]": {"tested_on": "NCI-H460", "experiment": "Induction of apoptosis in human NCI-H460 cells assessed as early apoptotic cells at 2 uM incubated for 48 hrs by AnnexinV-FITC/propidium iodide staining based flow cytometric analysis (reference value: 2.22%)", "type": "functional"}, "NCI-H460 [8]": {"tested_on": "NCI-H460", "experiment": "Induction of apoptosis in human NCI-H460 cells assessed as late apoptotic cells at 2 uM incubated for 48 hrs by AnnexinV-FITC/propidium iodide staining based flow cytometric analysis (reference value: 1.36%)", "type": "functional"}, "NCI-H460 [9]": {"tested_on": "NCI-H460", "experiment": "Induction of apoptosis in human NCI-H460 cells assessed as early apoptotic cells at 3 uM incubated for 48 hrs by AnnexinV-FITC/propidium iodide staining based flow cytometric analysis (reference value: 2.22%)", "type": "functional"}, "NCI-H460 [10]": {"tested_on": "NCI-H460", "experiment": "Induction of apoptosis in human NCI-H460 cells assessed as late apoptotic cells at 3 uM incubated for 48 hrs by AnnexinV-FITC/propidium iodide staining based flow cytometric analysis (reference value: 1.36%)", "type": "functional"}, "NCI-H460 [11]": {"tested_on": "NCI-H460", "experiment": "Inhibition of cell migration in human NCI-H460 cells assessed as reduction in cell migration measured after 48 hrs by wound healing assay", "type": "functional, cell-based", "settings": "dose 0.3-1.2 µM"}, "NCI-H460 [12]": {"tested_on": "NCI-H460", "experiment": "Inhibition of cell migration in human NCI-H460 assessed as reduction in cell migration at 0.3 to 1.2 uM by wound healing assay", "type": "functional, cell-based", "settings": "dose 0.3-1.2 µM, time 24-48 hrs, TDE = time-dependent effect"}, "NCI-H460 [13]": {"tested_on": "NCI-H460", "experiment": "Antitumor activity against human NCI-H460 cells xenografted in BALB/c mouse assessed as reduction in tumor weight at 20 mg/kg/day, ip for 15 days", "type": "functional", "settings": "360 h, time 15 day"}, "NCI-H460 [14]": {"tested_on": "NCI-H460", "experiment": "Antitumor activity against human NCI-H460 cells xenografted in BALB/c mouse assessed as reduction in tumor volume at 20 mg/kg/day, ip for 15 days", "type": "functional", "settings": "360 h, time 15 day"}, "[15]": {"experiment": "Toxicity in BALB/c mouse xenografted with human NCI-H460 cells assessed as body weight at 10 to 20 mg/kg/day, ip for 15 days and measured every 3 days", "type": "organism-based", "settings": "in vivo, 360 h, dose 10-20 mg/kg/day, time 15 day"}, "MCF7": {"tested_on": "MCF7", "experiment": "cells", "settings": "Homo sapiens, MCF7, 72 h", "description": "Antiproliferative activity against human MCF7 cells assessed as reduction in cell viability incubated for 72 hrs by CCK8 assay"}, "MGC-803": {"tested_on": "MGC-803", "experiment": "cells", "settings": "Homo sapiens, MGC-803, 72 h", "description": "Antiproliferative activity against human MGC-803 cells assessed as reduction in cell viability incubated for 72 hrs by CCK8 assay"}, "NCI-H460 [16]": {"tested_on": "NCI-H460", "experiment": "cells", "settings": "Homo sapiens, NCI-H460, 72 h", "description": "Antiproliferative activity against human NCI-H460 cells assessed as reduction in cell viability incubated for 72 hrs by CCK8 assay"}, "A549": {"tested_on": "A549", "experiment": "cells", "settings": "Homo sapiens, A549, 72 h", "description": "Antiproliferative activity against human A549 cells assessed as reduction in cell viability incubated for 72 hrs by CCK8 assay"}, "THP-1": {"tested_on": "THP-1", "experiment": "cells", "settings": "Homo sapiens, THP-1, 72 h", "description": "Antiproliferative activity against human THP-1 cells assessed as reduction in cell viability incubated for 72 hrs by CCK8 assay"}, "THLE-2": {"tested_on": "THLE-2", "experiment": "cells", "settings": "Homo sapiens, THLE-2, 72 h", "description": "Cytotoxicity against human THLE-2 cells assessed as reduction in cell viability incubated for 72 hrs by CCK8 assay"}}, "data": [{"smiles": "Cc1ccc(-c2cc3occ(CN4CCC[C@H](N)C4)c3cc2-c2ccc(C#N)cc2)cc1", "values": [{"measurement": "IC50", "setting": "[1]", "result": "> 20", "unit": "µM"}, {"measurement": "IC50", "setting": "[2]", "result": "> 20", "unit": "µM"}, {"measurement": "remaining at 1 h", "setting": "[3]", "result": 47, "unit": "%"}, {"measurement": "remaining at 1 h", "setting": "[4]", "result": 76.1, "unit": "%"}, {"measurement": "inhibition (INH)", "setting": "Cytochrome P450 2C9", "result": "Active"}, {"measurement": "inhibition (INH)", "setting": "Cytochrome P450 2C19", "result": "Active"}, {"measurement": "inhibition (INH)", "setting": "Cytochrome P450 2D6", "result": "Active"}, {"measurement": "inhibition (INH)", "setting": "Cytochrome P450 3A4", "result": "Active"}, {"measurement": "inhibition (INH)", "setting": "Cytochrome P450 1A2", "result": "Active"}, {"measurement": "Activity", "setting": "NCI-H460 [5]", "result": 2.22, "unit": "%"}, {"measurement": "Activity", "setting": "NCI-H460 [6]", "result": 0.87, "unit": "%"}, {"measurement": "Activity", "setting": "NCI-H460 [7]", "result": 6.78, "unit": "%"}, {"measurement": "Activity", "setting": "NCI-H460 [8]", "result": 2.77, "unit": "%"}, {"measurement": "Activity", "setting": "NCI-H460 [9]", "result": 19.13, "unit": "%"}, {"measurement": "Activity", "setting": "NCI-H460 [10]", "result": 11.01, "unit": "%"}, {"measurement": "inhibition", "setting": "NCI-H460 [11]", "result": "Dose-Dependent Effect"}, {"measurement": "inhibition", "setting": "NCI-H460 [12]", "result": "Tde"}, {"measurement": "inhibition in vivo at 20 mg/kg/day", "setting": "NCI-H460 [13]", "result": 64, "unit": "%"}, {"measurement": "inhibition in vivo at 20 mg/kg/day", "setting": "NCI-H460 [14]", "result": 68, "unit": "%"}, {"measurement": "Activity", "setting": "[15]", "result": "Non-Toxic"}, {"measurement": "IC50", "setting": "MCF7", "result": 2.9, "unit": "µM"}, {"measurement": "IC50", "setting": "MGC-803", "result": 5.85, "unit": "µM"}, {"measurement": "IC50", "setting": "NCI-H460 [16]", "result": 2.06, "unit": "µM"}, {"measurement": "IC50", "setting": "A549", "result": 5.74, "unit": "µM"}, {"measurement": "IC50", "setting": "THP-1", "result": 6.15, "unit": "µM"}, {"measurement": "IC50", "setting": "THLE-2", "result": 7.07, "unit": "µM"}]}]}
